Measured values from ChEMBL document CHEMBL1148237, “Bioisosteric replacement of anilide with benzoxazole: potent and orally bioavailable antagonists of VLA-4” (Bioorg Med Chem Lett, 2004).
Values belong to the compound of their own block, whether it stands above or below them.

Assays:
[1] = Clearance of compound in rat was evaluated; format: ADME, organism-based; conditions: in vivo
Integrin alpha-4/beta-1 [2] = target: T1, Integrin alpha-4/beta-1 (Homo sapiens, UniProt P05556+P13612); experiment: Inhibition of [Ca2+]/Mg2+ unactivated state of very late antigen 4 (VLA-4); format: protein-complex assay
T1 sequence (P05556 whole entry, one chain of several): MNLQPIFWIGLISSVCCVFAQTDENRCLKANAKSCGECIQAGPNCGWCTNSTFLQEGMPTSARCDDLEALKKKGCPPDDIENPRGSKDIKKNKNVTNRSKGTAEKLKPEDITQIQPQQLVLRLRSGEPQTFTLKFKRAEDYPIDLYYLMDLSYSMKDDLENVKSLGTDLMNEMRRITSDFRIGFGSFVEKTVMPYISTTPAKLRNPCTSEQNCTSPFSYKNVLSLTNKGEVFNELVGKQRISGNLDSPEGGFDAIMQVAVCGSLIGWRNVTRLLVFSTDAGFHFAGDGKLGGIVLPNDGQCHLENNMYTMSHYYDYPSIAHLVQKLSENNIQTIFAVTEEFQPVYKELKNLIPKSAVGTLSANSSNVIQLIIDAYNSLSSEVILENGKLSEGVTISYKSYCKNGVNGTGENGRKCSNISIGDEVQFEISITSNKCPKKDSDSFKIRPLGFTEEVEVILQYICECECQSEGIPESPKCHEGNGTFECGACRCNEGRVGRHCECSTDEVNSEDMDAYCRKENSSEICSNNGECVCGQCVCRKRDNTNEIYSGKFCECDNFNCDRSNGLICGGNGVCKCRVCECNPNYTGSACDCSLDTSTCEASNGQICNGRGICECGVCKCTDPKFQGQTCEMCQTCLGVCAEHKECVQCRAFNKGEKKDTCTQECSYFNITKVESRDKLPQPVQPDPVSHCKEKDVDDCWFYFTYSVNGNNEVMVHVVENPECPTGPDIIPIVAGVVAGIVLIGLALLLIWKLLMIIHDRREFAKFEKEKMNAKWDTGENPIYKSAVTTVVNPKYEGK

[3] = Bioavailability in rat; format: ADME, organism-based; conditions: in vivo
Integrin alpha-4/beta-1 [4] = target: T1, Integrin alpha-4/beta-1; experiment: Inhibition of Mn2+ activated state of very late antigen 4 (VLA-4); format: protein-complex assay
Integrin alpha-4/beta-7 = target: T2, Integrin alpha-4/beta-7 (Homo sapiens, UniProt P13612+P26010); experiment: Inhibition of Mn2+ activated state of alpha4-beta7 integrin; format: protein-complex assay
T2 sequence (P13612 whole entry): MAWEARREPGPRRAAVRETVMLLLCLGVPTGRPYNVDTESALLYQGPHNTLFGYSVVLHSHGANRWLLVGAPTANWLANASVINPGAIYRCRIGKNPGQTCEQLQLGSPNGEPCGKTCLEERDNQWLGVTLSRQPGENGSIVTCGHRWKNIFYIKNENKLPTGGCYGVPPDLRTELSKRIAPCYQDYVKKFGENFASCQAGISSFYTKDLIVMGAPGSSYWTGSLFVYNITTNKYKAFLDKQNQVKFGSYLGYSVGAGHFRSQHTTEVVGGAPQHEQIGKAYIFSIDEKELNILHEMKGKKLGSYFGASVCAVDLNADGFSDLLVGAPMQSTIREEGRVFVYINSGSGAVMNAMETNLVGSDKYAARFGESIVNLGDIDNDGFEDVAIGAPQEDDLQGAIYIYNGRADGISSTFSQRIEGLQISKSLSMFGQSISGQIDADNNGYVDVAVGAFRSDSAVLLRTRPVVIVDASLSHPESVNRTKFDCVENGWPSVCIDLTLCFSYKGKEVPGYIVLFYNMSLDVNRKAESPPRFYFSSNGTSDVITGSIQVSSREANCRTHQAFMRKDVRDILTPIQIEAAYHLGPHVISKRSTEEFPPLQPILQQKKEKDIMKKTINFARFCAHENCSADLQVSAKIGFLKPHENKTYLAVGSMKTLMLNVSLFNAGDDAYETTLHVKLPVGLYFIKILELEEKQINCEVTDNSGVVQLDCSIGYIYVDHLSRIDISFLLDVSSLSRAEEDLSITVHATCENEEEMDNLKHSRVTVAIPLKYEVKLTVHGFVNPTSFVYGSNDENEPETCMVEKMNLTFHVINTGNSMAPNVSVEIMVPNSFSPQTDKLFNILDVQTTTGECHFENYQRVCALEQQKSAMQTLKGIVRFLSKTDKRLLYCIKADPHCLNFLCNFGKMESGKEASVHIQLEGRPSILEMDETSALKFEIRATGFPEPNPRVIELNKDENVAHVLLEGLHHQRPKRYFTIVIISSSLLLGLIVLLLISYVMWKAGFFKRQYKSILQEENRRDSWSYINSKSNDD
T2 sequence (P26010 whole entry): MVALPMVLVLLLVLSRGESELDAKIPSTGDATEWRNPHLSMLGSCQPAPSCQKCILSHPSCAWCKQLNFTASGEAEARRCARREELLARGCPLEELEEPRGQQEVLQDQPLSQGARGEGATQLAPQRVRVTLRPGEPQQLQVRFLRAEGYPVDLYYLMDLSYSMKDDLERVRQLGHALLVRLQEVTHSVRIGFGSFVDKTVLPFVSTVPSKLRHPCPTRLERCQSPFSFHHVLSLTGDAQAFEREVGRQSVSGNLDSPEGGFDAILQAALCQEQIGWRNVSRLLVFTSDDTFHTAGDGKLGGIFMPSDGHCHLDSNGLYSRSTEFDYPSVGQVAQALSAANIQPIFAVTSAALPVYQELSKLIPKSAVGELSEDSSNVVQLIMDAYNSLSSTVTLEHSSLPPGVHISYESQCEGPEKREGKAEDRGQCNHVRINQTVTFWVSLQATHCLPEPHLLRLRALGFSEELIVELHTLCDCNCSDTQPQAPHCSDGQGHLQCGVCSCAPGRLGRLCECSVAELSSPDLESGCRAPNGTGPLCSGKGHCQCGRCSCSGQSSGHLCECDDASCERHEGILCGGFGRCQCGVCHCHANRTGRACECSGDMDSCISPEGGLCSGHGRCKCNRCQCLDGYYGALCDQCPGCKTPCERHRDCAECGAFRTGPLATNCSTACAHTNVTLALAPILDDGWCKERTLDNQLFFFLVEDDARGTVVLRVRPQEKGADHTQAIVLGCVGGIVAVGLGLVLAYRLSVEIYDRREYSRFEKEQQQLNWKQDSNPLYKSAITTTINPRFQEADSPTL

Structure (SMILES): COc1cccc(OC)c1-c1ccc(C[C@H](NC(=O)[C@]2(C)CCN2S(=O)(=O)c2cc(Cl)cc(Cl)c2)C(=O)O)cc1
clearance [1]: 97 mL/min/kg
IC50 (Integrin alpha-4/beta-1 [2]): 0.27 nM

Structure (SMILES): O=C(O)[C@H](Cc1ccc2oc(-c3c(Cl)cccc3Cl)nc2c1)NC(=O)[C@@H]1CCN1S(=O)(=O)c1cc(Cl)cc(Cl)c1
bioavailability [3]: 15%
IC50 (Integrin alpha-4/beta-1 [4]): 0.74 nM
clearance [1]: 24 mL/min/kg
IC50 (Integrin alpha-4/beta-7): 179 nM
IC50 (Integrin alpha-4/beta-1 [2]): 3.6 nM

Structure (SMILES): O=C(O)[C@H](Cc1ccc2[nH]c(-c3c(Cl)cccc3Cl)nc2c1)NC(=O)[C@@H]1CCN1S(=O)(=O)c1cc(Cl)cc(Cl)c1
bioavailability [3]: 0.3%
IC50 (Integrin alpha-4/beta-1 [4]): 0.54 nM
clearance [1]: 21 mL/min/kg
IC50 (Integrin alpha-4/beta-7): 105 nM
IC50 (Integrin alpha-4/beta-1 [2]): 1.8 nM

Structure (SMILES): O=C(Nc1ccc(C[C@H](NC(=O)[C@@H]2CCN2S(=O)(=O)c2cc(Cl)cc(Cl)c2)C(=O)O)cc1)c1c(Cl)cccc1Cl
bioavailability [3]: 0.7%
IC50 (Integrin alpha-4/beta-1 [4]): 0.27 nM
clearance [1]: 33 mL/min/kg
IC50 (Integrin alpha-4/beta-7): 22 nM
IC50 (Integrin alpha-4/beta-1 [2]): 0.31 nM

Structure (SMILES): O=C(O)[C@H](Cc1ccc2nc(-c3c(Cl)cccc3Cl)oc2c1)NC(=O)[C@@H]1CCN1S(=O)(=O)c1cc(Cl)cc(Cl)c1
bioavailability [3]: 8%
IC50 (Integrin alpha-4/beta-1 [4]): 1.7 nM
clearance [1]: 24 mL/min/kg
IC50 (Integrin alpha-4/beta-7): 1690 nM
IC50 (Integrin alpha-4/beta-1 [2]): 33 nM

Second part, the compound after the results:

bioavailability [3]: 1.2%
IC50 (Integrin alpha-4/beta-1 [4]): 0.69 nM
clearance [1]: 24 mL/min/kg
IC50 (Integrin alpha-4/beta-7): 3.2 nM
IC50 (Integrin alpha-4/beta-1 [2]): 22 nM
Structure (SMILES): O=C(N[C@@H](Cc1ccc2[nH]c(-c3c(Cl)cccc3Cl)nc2c1)C(=O)O)c1c(Cl)cccc1Cl

bioavailability [3]: 25%
IC50 (Integrin alpha-4/beta-1 [4]): 0.34 nM
clearance [1]: 25 mL/min/kg
IC50 (Integrin alpha-4/beta-7): 4.3 nM
IC50 (Integrin alpha-4/beta-1 [2]): 21 nM
Structure (SMILES): O=C(N[C@@H](Cc1ccc2oc(-c3c(Cl)cccc3Cl)nc2c1)C(=O)O)c1c(Cl)cncc1Cl

bioavailability [3]: 20%
IC50 (Integrin alpha-4/beta-1 [4]): 0.79 nM
clearance [1]: 9 mL/min/kg
IC50 (Integrin alpha-4/beta-7): 5.5 nM
IC50 (Integrin alpha-4/beta-1 [2]): 52 nM
Structure (SMILES): O=C(N[C@@H](Cc1ccc2oc(-c3c(Cl)cccc3Cl)nc2c1)C(=O)O)c1c(Cl)cccc1Cl
